# Data reported in ChEMBL document CHEMBL6121044, “Discovery of Novel Spirocyclic MAT2A Inhibitors Demonstrating High In Vivo Efficacy in MTAP-Null Xenograft Models” (J Med Chem, 2025).
# Legend:
# HCT-116 [1] = test: Antiproliferative activity against MTAP-knock out human HCT-116 cells assessed as proliferation inhibition rate measured after 5 days by CTG assay; type: functional, cell-based; conditions: HCT-116, 120 h
# HCT-116 [2] = test: Antiproliferative activity against MTAP-knock out human HCT-116 cells assessed as maximal inhibition rate at 10 uM measured after 5 days by CTG assay relative to control; type: functional; conditions: time 5 day
# [3] = Microsomal metabolic stability in mouse liver microsomes assessed as clearance; type: ADME, Microsome; conditions: read-out: CLH
# [4] = Clearance in male ICR mouse at 10 mg/kg, po and 2 mg/kg, iv measured upto 24 hrs; type: ADME, organism-based; conditions: in vivo
# [5] = Volume of distribution at steady state in male ICR mouse at 10 mg/kg, po and 2 mg/kg, iv measured upto 24 hrs; type: ADME, organism-based; conditions: in vivo
# [6] = Half life in male ICR mouse at 10 mg/kg, po and 2 mg/kg, iv measured upto 24 hrs; type: ADME, organism-based; conditions: in vivo
# [7] = AUC (0 to infinity) in male ICR mouse at 10 mg/kg, po and 2 mg/kg, iv measured upto 24 hrs; type: ADME, organism-based; conditions: in vivo
# [8] = molecular target: T1, S-adenosylmethionine synthase isoform type-2 (Homo sapiens, UniProt P31153); test: Inhibition of MAT2A in MTAP-knock out human HCT-116 cells assessed as inhibition of PRMT5-mediated symmetric […]-arginine (SDMA) level; type: cell-based
# [9] = molecular target: T1, S-adenosylmethionine synthase isoform type-2; test: Inhibition of MAT2A in wild type human HCT-116 cells assessed as inhibition of S-adenosylmethionine; type: cell-based
# [10] = molecular target: T1, S-adenosylmethionine synthase isoform type-2; test: Inhibition of MAT2A in wild type human HCT-116 cells assessed as inhibition of PRMT5-mediated symmetric […]-arginine (SDMA) level; type: cell-based
# [11] = Selectivity index, ratio of IC50 for antiproliferative activity against wild type human HCT-116 cells to IC50 for antiproliferative activity against MTAP-knock out human HCT-116 cells
# [12] = AUCinf in male ICR mouse at 2 mg/kg, iv measured upto 24 hrs by LC-MS/MS analysis; type: ADME, organism-based; conditions: in vivo
# [13] = AUCinf in male Sprague-Dawley rat at 2 mg/kg, iv measured upto 24 hrs upto 24 hrs by LC-MS/MS analysis; type: ADME, organism-based; conditions: in vivo
# [14] = AUCinf in male ICR mouse at 10 mg/kg, po measured upto 24 hrs by LC-MS/MS analysis; type: ADME, organism-based; conditions: in vivo
# [15] = AUCinf in beagle dog at 10 mg/kg, po measured upto 24 hrs upto 24 hrs by LC-MS/MS analysis; type: ADME, organism-based, Canis lupus familiaris; conditions: in vivo
# [16] = Half life in male ICR mouse at 2 mg/kg, iv measured upto 24 hrs by LC-MS/MS analysis; type: ADME, organism-based; conditions: in vivo
# [17] = Half life in male Sprague-Dawley rat at 2 mg/kg, iv measured upto 24 hrs upto 24 hrs by LC-MS/MS analysis; type: ADME, organism-based; conditions: in vivo
# [18] = Half life in beagle dog at 2 mg/kg, iv measured upto 24 hrs upto 24 hrs by LC-MS/MS analysis; type: ADME, organism-based, Canis lupus familiaris; conditions: in vivo
# [19] = Half life in male Sprague-Dawley rat at 10 mg/kg, po measured upto 24 hrs upto 24 hrs by LC-MS/MS analysis; type: ADME, organism-based; conditions: in vivo
# [20] = Volume of distribution at steady state in male Sprague-Dawley rat at 2 mg/kg, iv measured upto 24 hrs upto 24 hrs by LC-MS/MS analysis; type: ADME, organism-based; conditions: in vivo
# [21] = Cmax in male Sprague-Dawley rat at 10 mg/kg, po measured upto 24 hrs upto 24 hrs by LC-MS/MS analysis; type: ADME, organism-based; conditions: in vivo
# [22] = Cmax in male ICR mouse at 10 mg/kg, po measured upto 24 hrs by LC-MS/MS analysis; type: ADME, organism-based; conditions: in vivo
# [23] = Cmax in beagle dog at 10 mg/kg, po measured upto 24 hrs upto 24 hrs by LC-MS/MS analysis; type: ADME, organism-based, Canis lupus familiaris; conditions: in vivo
# [24] = Oral bioavailability in male Sprague-Dawley rat at 10 mg/kg measured upto 24 hrs upto 24 hrs by LC-MS/MS analysis; type: ADME, organism-based; conditions: in vivo
# [25] = Oral bioavailability in beagle dog at 10 mg/kg measured upto 24 hrs upto 24 hrs by LC-MS/MS analysis; type: ADME, organism-based, Canis lupus familiaris; conditions: in vivo
# [26] = Plasma protein binding in rat assessed as unbound fraction; type: ADME, cell-free
# [27] = Protein binding in mouse brain assessed as unbound fraction; type: ADME, tissue-based
# [28] = Microsomal metabolic stability in human liver microsomes assessed as half life; type: ADME, Microsome
# [29] = Microsomal metabolic stability in dog liver microsomes assessed as half life; type: ADME, Canis lupus familiaris, Microsome
# [30] = Microsomal metabolic stability in rat liver microsomes assessed as half life; type: ADME, Microsome
# [31] = Microsomal metabolic stability in mouse liver microsomes assessed as half life; type: ADME, Microsome
# [32] = Hepatic metabolic stability in human hepatocyte assessed as half life; type: ADME, cell-based; conditions: hepatocytes
# [33] = Hepatic metabolic stability in dog hepatocyte assessed as half life; type: ADME, cell-based, Canis lupus familiaris; conditions: hepatocytes
# [34] = Hepatic metabolic stability in rat hepatocyte assessed as half life; type: ADME, cell-based; conditions: hepatocytes
# [35] = Hepatic metabolic stability in mouse hepatocyte assessed as half life; type: ADME, cell-based; conditions: hepatocytes
# [36] = Solubility of the compound in FaSSGF; type: physicochemical
# [37] = Solubility of the compound in pH 7.4 phosphate buffer; type: physicochemical
# [38] = Lipophilicity, log P of the compound; type: physicochemical; conditions: octanol/water
# [39] = Efflux ratio of apparent permeability in human Caco-2 cells; type: ADME, cell-based
# [40] = Apparent permeability across apical to basolateral in human Caco-2 cells; type: ADME, cell-based; conditions: read-out: permeability
# Cytochrome P450 2C8 = molecular target: T2, Cytochrome P450 2C8 (Homo sapiens, UniProt P10632); test: Inhibition of CYP2C8 (unknown origin); type: ADME
# T2 sequence (P10632 whole entry): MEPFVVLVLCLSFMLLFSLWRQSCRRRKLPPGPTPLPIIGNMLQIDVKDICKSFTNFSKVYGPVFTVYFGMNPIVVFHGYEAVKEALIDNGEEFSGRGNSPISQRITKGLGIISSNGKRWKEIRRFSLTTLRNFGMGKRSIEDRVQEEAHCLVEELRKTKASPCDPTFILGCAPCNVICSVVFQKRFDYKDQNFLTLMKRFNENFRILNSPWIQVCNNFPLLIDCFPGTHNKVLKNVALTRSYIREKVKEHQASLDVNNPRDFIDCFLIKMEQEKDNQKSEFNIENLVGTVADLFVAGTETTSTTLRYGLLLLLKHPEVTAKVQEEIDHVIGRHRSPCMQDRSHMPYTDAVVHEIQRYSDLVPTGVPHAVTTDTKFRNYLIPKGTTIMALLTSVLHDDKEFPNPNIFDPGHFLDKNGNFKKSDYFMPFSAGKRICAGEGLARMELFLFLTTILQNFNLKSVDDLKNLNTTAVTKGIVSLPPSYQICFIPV
# [41] = molecular target: Voltage-gated inwardly rectifying potassium channel KCNH2 (Homo sapiens, UniProt Q12809); test: Inhibition of hERG; type: toxicity
# [42] = Genotoxicity in Salmonella typhimurium TA98; type: toxicity; conditions: salmonella enterica subsp. enterica serovar typhimurium
# [43] = Genotoxicity in Salmonella typhimurium TA97a; type: toxicity; conditions: salmonella enterica subsp. enterica serovar typhimurium
# [44] = Genotoxicity in Salmonella typhimurium TA1535; type: toxicity; conditions: salmonella enterica subsp. enterica serovar typhimurium
# [45] = Toxicity in mouse xenografted with MTAP-deleted human HCT116 cells assessed as body weight loss at 10 mg/kg, po qd measured after 18 days relative to control; type: organism-based; conditions: in vivo, 432 h, time 18 day
# T1 sequence (P31153 whole entry, canonical isoform): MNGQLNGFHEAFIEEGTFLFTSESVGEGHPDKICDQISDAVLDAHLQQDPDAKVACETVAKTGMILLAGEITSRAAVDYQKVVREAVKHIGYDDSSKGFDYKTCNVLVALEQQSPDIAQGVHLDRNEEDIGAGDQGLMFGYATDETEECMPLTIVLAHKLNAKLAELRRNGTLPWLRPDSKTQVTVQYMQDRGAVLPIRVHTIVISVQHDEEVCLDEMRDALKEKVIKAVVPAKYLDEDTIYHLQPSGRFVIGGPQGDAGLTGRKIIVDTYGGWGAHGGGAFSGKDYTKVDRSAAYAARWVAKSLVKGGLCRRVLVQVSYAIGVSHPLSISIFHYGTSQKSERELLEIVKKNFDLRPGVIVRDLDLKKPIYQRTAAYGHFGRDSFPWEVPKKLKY
# Chain of Voltage-gated inwardly rectifying potassium channel KCNH2 (Q12809 whole entry): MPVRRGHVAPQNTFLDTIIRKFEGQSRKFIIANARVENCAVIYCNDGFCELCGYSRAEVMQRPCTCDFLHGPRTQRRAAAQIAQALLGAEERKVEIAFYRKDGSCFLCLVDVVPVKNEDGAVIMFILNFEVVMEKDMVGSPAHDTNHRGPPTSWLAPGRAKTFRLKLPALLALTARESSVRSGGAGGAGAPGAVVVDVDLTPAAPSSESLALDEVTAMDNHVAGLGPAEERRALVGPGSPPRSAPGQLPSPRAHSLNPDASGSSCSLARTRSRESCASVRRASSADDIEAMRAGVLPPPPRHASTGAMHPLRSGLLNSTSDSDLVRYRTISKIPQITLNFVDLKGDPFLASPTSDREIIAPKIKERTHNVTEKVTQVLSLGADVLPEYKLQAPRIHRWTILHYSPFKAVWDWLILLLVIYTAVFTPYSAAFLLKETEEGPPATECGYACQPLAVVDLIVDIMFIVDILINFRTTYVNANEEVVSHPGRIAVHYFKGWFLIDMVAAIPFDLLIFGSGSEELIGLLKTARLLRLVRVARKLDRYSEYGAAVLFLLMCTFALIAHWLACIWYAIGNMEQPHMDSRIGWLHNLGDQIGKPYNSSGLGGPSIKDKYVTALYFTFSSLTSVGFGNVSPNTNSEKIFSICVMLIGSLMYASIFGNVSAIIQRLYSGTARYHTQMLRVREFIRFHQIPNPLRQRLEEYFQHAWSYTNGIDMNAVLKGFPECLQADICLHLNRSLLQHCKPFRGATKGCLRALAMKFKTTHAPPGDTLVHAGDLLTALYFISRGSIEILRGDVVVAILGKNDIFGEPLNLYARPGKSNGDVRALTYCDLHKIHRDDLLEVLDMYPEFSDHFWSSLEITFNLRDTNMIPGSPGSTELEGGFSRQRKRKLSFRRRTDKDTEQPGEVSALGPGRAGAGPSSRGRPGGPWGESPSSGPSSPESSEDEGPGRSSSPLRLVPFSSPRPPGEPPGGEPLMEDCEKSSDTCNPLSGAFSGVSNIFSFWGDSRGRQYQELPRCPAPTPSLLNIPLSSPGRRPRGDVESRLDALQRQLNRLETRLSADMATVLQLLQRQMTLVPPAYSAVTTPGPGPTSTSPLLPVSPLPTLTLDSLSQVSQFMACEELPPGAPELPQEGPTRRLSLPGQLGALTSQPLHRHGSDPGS
compound,measurement,setting,value
[2H]C([2H])([2H])NC1=NC(=O)[C@]2(CCc3ncccc32)c2cc(C(C)(F)F)ccc21,IC50,HCT-116 [1],47 nM
same,Imax,HCT-116 [2],100%
same,CLint scaled,[3],37 mL/min/kg
same,clearance,[4],9.12 mL/min/kg
same,Vdss,[5],1.53 L/kg
same,half-life,[6],2.24 h
same,AUC(0-inf),[7],24900 ng·h/mL
same,IC50,[8],2 nM
same,IC50,[9],2 nM
same,IC50,[10],> 3000 nM
same,Selectivity Index,[11],>181
same,AUC(0-inf),[12],3660 ng·h/mL
same,AUC,"[13]; iv, 2 mg/kg, 24 h",2212 ng·h/mL
same,AUC(0-inf),[14],24900 ng·h/mL
same,AUC(0-inf),[15],12300 ng·h/mL
same,half-life,[16],1.94 h
same,t1/2,[17],2.03 h
same,half-life,[18],6.56 h
same,half-life,[19],2.35 h
same,Vdss,[20],1.95 L/kg
same,Cmax,[21],6100 ng/mL
same,Cmax,[22],5820 ng/mL
same,Cmax,[23],2140 ng/mL
same,bioavailability,"[24]; male, Sprague-Dawley",135%
same,F,"[25]; po, 10 mg/kg, 24 h",165%
same,fraction unbound,[26],0.373
same,fraction unbound,[27],0.148
same,half-life,[28],> 3.1 h
same,half-life,[29],> 3.1 h
same,half-life,[30],> 3.1 h
same,half-life,[31],> 2.46 h
same,half-life,[32],> 3.61 h
same,half-life,[33],> 3.61 h
same,half-life,[34],> 3.61 h
same,half-life,[35],> 3.61 h
same,solubility,[36],79.9 µM
same,solubility,[37],174 µM
same,logP,[38],1.65
same,efflux ratio,[39],5.27
same,Papp A→B,[40],5.12 ×10⁻⁶ cm/s
same,IC50,Cytochrome P450 2C8,> 10000 nM
same,IC50,[41],> 40000 nM
same,Activity,[42],Non-toxic
same,Activity,[43],Non-toxic
same,Activity,[44],Non-toxic
[2H]C([2H])([2H])NC1=NC(=O)[C@]2(CCc3ncccc32)c2cc(C(F)(F)F)ccc21,IC50,HCT-116 [1],58 nM
same,Imax,HCT-116 [2],89.34%
same,CLint scaled,[3],< 29.3 mL/min/kg
same,clearance,[4],7.98 mL/min/kg
same,Vdss,[5],1.7 L/kg
same,half-life,[6],2.17 h
same,AUC(0-inf),[7],39600 ng·h/mL
same,IC50,[8],1 nM
same,IC50,[9],3 nM
same,IC50,[10],> 3000 nM
same,Selectivity Index,[11],20
same,AUC(0-inf),[12],4190 ng·h/mL
same,AUC(0-inf),"[13]; male, Sprague-Dawley",4990 ng·h/mL
same,AUC(0-inf),[14],35800 ng·h/mL
same,AUC(0-inf),[15],13600 ng·h/mL
same,half-life,[16],2.52 h
same,t1/2,[17],2.35 h
same,half-life,[18],6.91 h
same,half-life,[19],2.4 h
same,Vdss,[20],1.84 L/kg
same,Cmax,[21],8520 ng/mL
same,Cmax,[22],5420 ng/mL
same,Cmax,[23],1660 ng/mL
same,F,"[24]; po, 10 mg/kg, 24 h",171%
same,bioavailability,[25]; beagle,130%
same,fraction unbound,[26],0.412
same,fraction unbound,[27],0.113
same,half-life,[28],> 3.1 h
same,half-life,[29],> 3.1 h
same,half-life,[30],> 3.1 h
same,half-life,[31],> 3.1 h
same,half-life,[32],> 3.61 h
same,half-life,[33],> 3.61 h
same,half-life,[34],> 3.61 h
same,half-life,[35],> 3.61 h
same,solubility,[36],30.9 µM
same,solubility,[37],173 µM
same,logP,[38],1.85
same,efflux ratio,[39],1.95
same,Papp A→B,[40],13.6 ×10⁻⁶ cm/s
same,IC50,Cytochrome P450 2C8,> 10000 nM
same,IC50,[41],> 40000 nM
same,Activity,[42],Non-toxic
same,Activity,[43],Non-toxic
same,Activity,[44],Non-toxic
same,Activity,[45],~ 15%
